Measured values: BindingDB's records for doi:10.1016/j.ejmech.2018.01.013 (University of Rennes 1, 2018)

Experiment: Inhibition of human 20S constitutive proteasome beta-1 using Z-LLE-betaNA as substrate incubated for 15 mins measured for 45 mins by fluorescence assay

Compound | IC50 [µM]
C[C@H](NC(=O)[C@H](Cc1ccc(OCc2ccccc2)cc1)NC(=O)OC(C)(C)C)C(=O)N[C@@H](C[C@]1(O)C(=O)Nc2ccccc21)C(=O)NCC(C)(C)C | 15.1
NCCCC[C@H](NC(=O)[C@@H](N)Cc1ccc(OCc2ccccc2)cc1)C(=O)N[C@@H](C[C@]1(O)C(=O)Nc2ccccc21)C(=O)NCc1ccccc1 | 13
CC(O)[C@@H](NC(=O)c1ccc(OCc2ccccc2)cc1)C(=O)N[C@@H](C[C@]1(O)C(=O)Nc2ccccc21)C(=O)NCc1ccccc1 (stereo not given in full) | 31.9
CC(C)(C)OC(=O)N[C@@H](Cc1ccc(OCc2ccccc2)cc1)C(=O)N[C@@H](CC(N)=O)C(=O)N[C@@H](C[C@]1(O)C(=O)Nc2ccccc21)C(=O)NCc1ccccc1 | 20.1
C[C@H](NC(=O)c1ccc(OCc2ccccc2)cc1)C(=O)N[C@@H](C[C@]1(O)C(=O)Nc2ccccc21)C(=O)NCc1ccccc1 | 35
C[C@H](NC(=O)[C@H](Cc1ccc(OCc2ccccc2)cc1)NC(=O)OC(C)(C)C)C(=O)N[C@@H](C[C@]1(O)C(=O)N(C)c2ccccc21)C(=O)NCc1ccccc1 | 11.4
C[C@H](NC(=O)[C@@H](N)Cc1ccc(OCc2ccccc2)cc1)C(=O)N[C@@H](C[C@]1(O)C(=O)Nc2ccccc21)C(=O)NCc1ccccc1 | 30
C[C@H](NC(=O)[C@H](Cc1ccc(OCc2ccccc2)cc1)NC(=O)OC(C)(C)C)C(=O)N[C@@H](C[C@@]1(O)C(=O)Nc2ccccc21)C(=O)NCc1ccccc1 | 17.2
C[C@H](NC(=O)[C@H](Cc1ccc(OCc2ccccc2)cc1)NC(=O)OC(C)(C)C)C(=O)N[C@@H](C[C@]1(O)C(=O)Nc2ccccc21)C(=O)NCc1ccc(-c2ccccc2)cc1 | 17.6
C[C@H](NC(=O)[C@H](Cc1ccc(OCc2ccccc2)cc1)NC(=O)OC(C)(C)C)C(=O)N[C@@H](C[C@]1(O)C(=O)Nc2ccccc21)C(=O)NCc1cccc2ccccc12 | 2.14
C[C@H](NC(=O)[C@H](Cc1ccc(OCc2ccccc2)cc1)NC(=O)OC(C)(C)C)C(=O)N[C@@H](C[C@]1(O)C(=O)Nc2ccccc21)C(=O)NC(c1ccccc1)c1ccccc1 | 2.2
C[C@H](NC(=O)[C@H](Cc1ccc(OCc2ccccc2)cc1)NC(=O)OC(C)(C)C)C(=O)N[C@@H](C[C@@]1(O)C(=O)N(C)c2ccccc21)C(=O)NCc1ccccc1 | 13.4
C[C@H](NC(=O)Cc1cccc(Oc2ccccc2)c1)C(=O)N[C@@H](C[C@]1(O)C(=O)Nc2ccccc21)C(=O)NCc1ccccc1 | 40
C[C@@H](NC(=O)[C@H](Cc1ccc(OCc2ccccc2)cc1)NC(=O)OC(C)(C)C)C(=O)N[C@@H](C[C@]1(O)C(=O)Nc2ccccc21)C(=O)NCc1ccccc1 | 17.1
C[C@H](NC(=O)[C@H](Cc1ccc(OCc2ccccc2)cc1)NC(=O)OC(C)(C)C)C(=O)N[C@@H](C[C@]1(O)C(=O)Nc2ccccc21)C(=O)NCCc1ccccc1 | 4.9
